From US20250170089A1, “ANTIMICROBIAL AMINO ESTERS” (THE HONG KONG POLYTECHNIC UNIVERSITY, priority 2023, published 2025)

Legend:
[1] = Skin irritation according to ISO 10993-10:2010; conditions: concentration as high as 3.9 mg/mL
[2] = Skin sensitization according to ISO 10993-10:2010; conditions: concentration as high as 3.9 mg/mL
[3] = tested on: methicillin-resistant Staphylococcus aureus (MRSA); assay: MIC against methicillin-resistant Staphylococcus aureus; type: cell-based
[4] = Dynamic light scattering (DLS) and zeta-potential of self-assembled nanoparticles; type: physicochemical
Excerpt: The dynamic light scattering (DLS) and zeta-potential indicate that […] assembles into nanoparticles with an average size of around 50-200 nm (FIG. 5) and the surface potential of the generated nanoparticle can be +2.15 mV, which means the nanoparticle is positive charged and the hydrophilic -NH2 groups are probably distributed on the outer surfaces.

microbes = assay: Rapid bactericidal test (shaking method, ASTM E2149 13a); type: cell-based; conditions: Ala12 diluted to 10 mg/mL with phosphate buffer, contact time 10 mins
Experimental: The Ala12 was diluted to 10 mg/mL with phosphate buffer. The shaking method (see the ASTM standard E2149 13a 2015) was used to detect their antibacterial activity, wherein the PBS group was used as a blank control. The contact time of bacteria treated with Ala12 is 10 mins.

Candida albicans = assay: MIC against fungi (Candida albicans); type: cell-based

## CCCCCCCCCCCCOC(=O)C(C)N (stereo not shown) [Ala12]
[1]
  skin irritation: completely free
[2]
  skin sensitization: completely free
[3]
  MIC: 390 μg/m
[4]
  surface potential of the generated nanoparticle (zeta-potential): +2.15 mV
[4]; DLS, FIG. 5
  average size of nanoparticles: 50-200 nm
microbes
  time within which the amino ester kills microbes: ≤ 10 min
Candida albicans
  MIC: 390 μg/m
